Experiment in all cases: NCI anticancer screen, dose series, 48 h
Test [1] relates to MDA-MB-435.
Test [2] deals with UACC-62 melanoma.
Test [3] has as its system K-562 leukemia.
The subject of test [4] is HS 578T breast.
Test [5] relates to DU-145 prostate.
In test [6] the test system is KM12 colon.
Test [7] relates to HOP-92 NSCLC.
For test [8], the system named is SNB-75 CNS.
Test [9] deals with OVCAR-8 ovarian.
The test system of test [10] is SF-539 CNS.

Several values for one entry are separate records, joined by “and”; a condition that tells them apart may be missing. Equal entries are not always repeated.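 Cells were grown in 96-well plates and exposed to each compound for 48 hours at five concentrations; endpoints were interpolated linearly between bracketing concentrations, or set to the highest concentration if not reached. GI50: concentration for 50% inhibition of growth. TGI: total growth inhibition.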

Turning to `CNc1ccc2c(c1)[C@@]1(C)c3ccccc3[C@@H](C2)N1C`, the TGI in test [1] was 39.1 µM; in test [2] it was 35.7 µM; in [3], 67.5 µM; in [4], more than 100 µM; in [5], more than 100 µM; in test [6], 78.3 µM. For the same molecule, the TGI in [7] came to 74.4 µM.
As for `Nc1cccc(/C=C/C(=O)N2CCN(CCOC(c3ccccc3)c3ccccc3)CC2)c1`, the TGI in test [8] was found to be 26.2 µM; in test [9], 35.6 µM; in test [10], 31 µM; in test [1], 29.8 µM; in test [2], 29.6 µM; in test [3], 26.7 µM. Also, the TGI in test [4] stood at 45.6 µM; in test [5] it was 28.5 µM; in [6], 30.7 µM; in test [7], 26.2 µM.
Turning to `CC1=CC(=O)c2ccccc2C1=O`, the TGI in test [8] was 22.1 µM; in [9], 22.7 µM; in [10] it was 11.9 µM; in [1] it was 3.81 µM; in test [2], 10.3 µM; in [4], 41.4 µM. Also, the TGI in test [5] stood at 29.4 µM; in test [6], 23 µM; in test [7], 2.94 µM.
With `CCCCCCCCC/C=C/C=C/C(=O)NCC(=O)NC1C(O)C(O)C(Nc2ncnc3nc[nH]c23)OC1C(O)CO` (configuration not stated), the GI50 in test [8] is 0.00184 µM; in [9], 0.00555 µM; in [3], 0.36 µM; in [4], 0.201 µM; in test [5], 0.00477 µM; in [6], 0.0013 µM. Moreover, the TGI in test [8] was 0.018 µM and 0.0703 µM; in test [9] it was 0.077 µM; in test [10], 0.103 µM; in test [1], 0.256 µM; in test [2] it was 0.0171 µM; in test [3] it was more than 100 µM. The molecule also came in with a TGI in test [6] of 0.608 µM.
As to `C[C@H](CCC(=O)O)[C@H]1CC[C@@]2(C)[C@@H]3C(=O)C[C@H]4C(C)(C)[C@@H](O)CC[C@]4(C)[C@H]3C(=O)C[C@]12C`, the TGI in [8], in test [9], in test [10], in [1], in [2] and in test [3] was more than 100 µM throughout. Further, the TGI in [4], in test [5], in test [6] and in [7] was more than 100 µM in each case.
In the case of `Cc1c(N2C(=O)CS(=O)(=O)C2c2cccc(Oc3ccccc3)c2)c(=O)n(-c2ccccc2)n1C` (configuration not stated), the TGI in test [9], in test [10], in [1], in test [2], in [3] and in [4] was more than 100 µM each time. The TGI in test [5], in [6] and in test [7] was more than 100 µM each time.
Turning to `CC1=NN(c2cccc(Cl)c2)C2(SCC(=O)N2c2nc3ccccc3s2)/C1=C\c1cccs1` (configuration not stated), the TGI is 47.9 µM in test [8]; 51.8 µM in test [9]; 16.1 µM in test [10]; more than 100 µM in test [1]; 26.4 µM in test [3]; 59 µM in [4]. Moreover, the TGI is more than 100 µM in test [5], 94.6 µM in test [6] and 53.6 µM in [7].
As to `COc1nc(C#CC2(O)CCCCC2)nc(OC)n1`, the TGI in [8] was 40.3 µM; in [9], 39.8 µM; in test [10], 23.3 µM; in [1], 18.8 µM; in test [2] it was 20.2 µM; in test [3], more than 100 µM. Moreover, the TGI in [4] was determined as 44.8 µM; in test [5] it was 19.6 µM; in test [6], 30.2 µM.
Regarding `C(=N\NC1=NCCN1)/c1ccc(-c2cn3cc(/C=N/NC4=NCCN4)ccc3n2)cc1`, the TGI in test [8] is more than 100 µM; in test [9] it was more than 55 µM; in test [10], more than 100 µM; in [1], more than 79.7 µM; in test [2], more than 100 µM; in test [3], 42.5 µM. In addition, the TGI was more than 100 µM in test [4], 37.7 µM in [5], more than 100 µM in test [6] and 43.2 µM in [7].
With `Nc1ccccc1S(=O)(=O)c1ccccc1`, the TGI in test [8], in test [9], in [10], in test [2], in test [3] and in test [6] was more than 100 µM in each case. Further, the TGI in [7] was more than 100 µM.
For `Nc1nc(SCCc2ccccc2)nc2nc3c(c(-c4ccccc4)c12)CCCC3`, the TGI was 83.7 µM in test [8]; more than 100 µM in [9]; more than 100 µM in [10]; more than 100 µM in [1]; more than 100 µM in test [2]; more than 100 µM in [3]. Also, the TGI is 64.7 µM in test [4], more than 100 µM in [5] and more than 100 µM in test [6].
In the case of `COc1cc2c(ccc3c4cc(OC)c(OC)cc4c[n+](C)c23)cc1O`, the TGI in [8] is 16.4 µM; in test [9], 62 µM; in [10] it was 28.7 µM; in test [2], 11.5 µM; in test [3] it was more than 75 µM; in test [6], more than 75 µM. This molecule yielded a TGI in test [7] of more than 75 µM.
In the case of `CCCNC(=O)CCC(C)C1CCC2C3C(C[C@H](OC(C)=O)[C@]12C)[C@@]1(C)CCC2(C[C@H]1C[C@H]3OC(C)=O)OOC1(CC[C@]3(C)C4C[C@H](OC(C)=O)[C@]5(C)C(C(C)CCC(=O)NCCC)CCC5C4[C@H](OC(C)=O)C[C@@H]3C1)OO2` (some centres not stated), the TGI is more than 69.5 µM in [8]; more than 93.9 µM in test [9]; more than 100 µM in [10]; more than 100 µM in test [1]; more than 100 µM in test [2]; more than 100 µM in test [3]. The TGI in test [4] was 98.2 µM; in test [5] it was more than 100 µM; in [6], more than 100 µM; in test [7] it was more than 68.4 µM. For the same molecule, the GI50 is more than 82.2 µM in test [10], more than 67 µM in test [2] and 7.51 µM in test [7].

Values taken from PubChem BioAssay (NCI).
